Source: patent US12544375B2, “Small molecule therapeutic for parkinson's disease paired with a biomarker of therapeutic activity” (The Board of Trustees of the Leland Stanford Junior …, priority 2019, dated 2026)

Key:
[1] = system: Mitofusin (Marf); assay: Flies fed compound, Mitofusin (Marf) Western blot; assay type: in vivo, fruit flies; conditions: wild-type flies fed 250 μM for 7 days
Description: FIG. 2A-FIG. 2F. Miro1 Reducer Eliminates the Miro1 Defect in PD Fibroblasts. (FIG. 2A) Chemical properties of Miro1 Reducer. (FIG. 2B) Wild-type flies (w^1118) were fed with DMSO alone (0 μM Miro1 Reducer) or Miro1 Reducer in DMSO at 250 μM for 7 days, and lysed and blotted as indicated. The band intensities are normalized to those of Tubulin from the same blots. n=4. (FIG. 2C-FIG. 2E) Fibroblasts were treated, lysed, and blotted as indicated. (FIG. 2C) Band intensities are normalized to those of GAPDH from the same blots and compared to “Healthy-1, no treatment” except otherwise indicated. n=4. (FIG. 2D) Band intensities are normalized to those of ATP5β from the same blots and expressed as a percentage of the mean of “0 μM Miro1 Reducer with CCCP”. Mean±S.E.M is shown. n=3. (FIG. 2E) Band intensities are normalized to those of GAPDH from the same blots and compared to “Healthy-1, no CCCP, no MG132” except otherwise indicated. n=4. […] The Miro1 intensity is normalized to that of mito-dsRed from the same cell and quantified across 37-62 cells from 5 fields each transfection, 3 independent transfections. […]
We assessed the binding ability of 6,835,320 commercialized small molecules to one of the two atypical Rho GTPase domains of Miro1 (amino acids 411-592) (FIG. 6C) by a customized virtual screen using the artificial intelligence (AI) technology. […]

[2] = system: LRRK2^G2019S, PINK1 null and SNCA^A53T flies; assay: Fly lifespan (survival curves); assay type: in vivo
Description: FIG. 4A-FIG. 4I. Miro1 Reducer Rescues PD-Relevant Phenotypes in Flies. For all panels, when Miro1 Reducer was not added, the same volume of the solvent, DMSO, was supplied in fly food. Drug administration (2.5 μM) was started from day 2. (FIG. 4A-FIG. 4C) Survival curves of LRRK2^G2019S (FIG. 4A), PINK1^B9 (imprecise excision, null) and PINK1^RV (the precise excision control for PINK1^B9) (FIG. 4B), and SNCA^A53T flies (FIG. 4C). n=58-150. (FIG. 4D) Dopaminergic (DA) neurons in the PPM1/2 clusters of 22-day old flies were immunostained with anti-TH. (FIG. 4D-FIG. 4F) Quantification of the DA neuron number in the PPL1 or PPM1/2 cluster (total number divided by 2 for each brain). (FIG. 4D) LRRK2^G2019S. n=6-8 brains. (FIG. 4E) PINK1^B9 (“−”) and PINK1^RV (“+”). n=9-16. (FIG. 4F) SNCA^A53T. n=9-11. (FIG. 4G-FIG. 4I) Climbing ability (Average PI±S.E.M) of adult flies. n=24-47 flies.
In order to cross-validate the neuroprotective effect of Miro1 Reducer in vivo, we fed the compound to three well-established fly PD models: (1) Actin-GAL4>UAS-LRRK2^G2019S (ubiquitous expression of human pathogenic LRRK2); (2) PINK1 null; and (3) Elav-GAL4>UAS-SNCA^A53T (neuronal expression of human pathogenic alpha-synuclein). […]
Fly Behavior and Biochemical Assays. […] Flies were transferred into fresh vials and the numbers of dead and escaped flies were scored 3 times a week. […]

O=C(Nc1ccc(Nc2cc(-n3ccnc3)ncn2)cc1)Nc1cccc(F)c1 [Miro1 Reducer]
effect on OMM GTPase Mitofusin (Marf) [1]: did not significantly affect | long-term toxicity (lifespan) ([2]; 2.5 μM in food from adulthood, wild-type or PD flies): no long-term toxicity | lifespan of SNCA^A53T flies ([2]; 2.5 μM in food, Log-Rank P=0.00019 0 μM v.s. 2.5 μM): extended the shortened lifespan
